Source: patent US20240331158A1, “CELL PAINTING AND ANALYSIS IN 3D CELLULAR MODELS” (priority 2023, published 2024)
Where a name gives a salt, the structure may show the parent alone. Read-outs that look alike come from different tables or passages of the source.

Columns and labels:
TU-BcX-4IC tumoroids [1] = assay: Secondary follow-up 3D assay, 7-point concentration curves, tumoroid disintegration measurement; type: cell-based, human; details: Homo sapiens, TU-BcX-4IC, 120 h
Description: 10 compounds, including panobinostat, carfilzomib, and bortezomib were tested across 7 concentrations in the 1-10000 nM range. Spheroids were treated for 5 days with these compounds, then stained as described above (FIG. 4). […] EC50 values (Table 2) were determined using tumoroid disintegration measurement (nuclear count in projection images).
Automated staining of spheroids was performed for one hour. After staining, dye solution was replaced with 1×PBS.

TU-BcX-4IC 3D cultures [2] = assay: CellTiter-Glo 3D ATP assay, 3D culture; details: Homo sapiens, TU-BcX-4IC, 120 h, read-out: EC50, ATP 3D
Description: (§1) Cell metabolism may be measured by ATP level as another readout for effects of anti-cancer drugs that is related to cytotoxicity. […] Compounds may be tested using 7 point 5× dilutions starting from 100 uM. In the present examples, compound effects on 2D culture and 3D cultures were compared, using imaging and CellTiter-Glo 3D methods. Cultures were set up in parallel, using same cell number (2000). Cultures were allowed to grow for 48 hours, then treated with compounds for 5 days.

TU-BcX-4IC 2D culture [3] = assay: CellTiter-Glo 3D ATP assay, 2D culture; details: Homo sapiens, TU-BcX-4IC, 120 h, read-out: EC50, ATP 2D
Description: as §1

TU-BcX-4IC tumoroids [4] = assay: Library screening of NCI approved anti-cancer drugs: tumoroid integrity/disintegration by nuclear count in projection images (viability/spheroid disintegration assay); details: for minimal effective concentration: Homo sapiens, TU-BcX-4IC, 120 h, read-out: Effective concentration, 3D tumoroids, 5 days treatment, tumoroid integrity by nuclear count, tested at 10 nM to 100 uM; for Viability HIT?: also hit in viability/spheroid disintegration assay, 10 μM
Description: In addition, positive and negative controls were included in the test plates.
During incubation with compounds, tumoroids were monitored daily using TL imaging. Image analysis allowed characterization of tumoroid size, diameter, compactness, and integrity, as well as optical density (FIG. 2B, FIG. 7). Images of tumoroids were taken prior to compound treatment, and during day 3 and day 5 of compound treatment. For the end point assay, tumoroids were stained with viability and nuclear dyes on day 5 of compound treatment. Cells were stained with a combination of Hoechst, calcein AM, and Ethidium Homodimer III (EthD-III) and analyzed using high content imaging for complex phenotypic analysis; a subset of plates was set aside for additional assays including Cell Painting.
Images of organoids were taken with a 10× objective using Z-stack with a step size of 8 mm. Nuclei, live cells, and dead cells of stained cells were detected using DAPI, FITC, and TexasRed channels respectively. Maximum projection images were created from Z-stacks and analyzed as described in Methods. Multiple read-outs were generated characterizing spheroid area, diameter, intensities, and cell viability. In addition, cells inside each spheroid were counted using a nuclear stain. […] Suspended cells were plated into U-shape 384 well plates using a Biomek i7 automated liquid handler, incubated for 48 hours, and then treated with compounds, stained, and imaged. The protocols for compound additions, media, and staining included gentle media dispensing processes. Consecutively, tumoroids were cultured and monitored by automated imaging. Additionally, use of a collaborative robot enabled moving plates from the incubator to the imaging system, where transmitted light imaging or fluorescent imaging protocols were initiated.
For screening the compound library, maximum projection images may be employed. Spheroid disintegration is visible as an increase of spheroid size, in contrast to nicely shaped, round images of intact spheroids. Tumoroid disintegration can be described by several measurements: for example, increase in organoid area/diameter. Most accurate measurements may be done by counting cells or nuclei inside organoids using maximum projection images. […] Disintegrated tumoroids are made up of cells which are not held together in a tight aggregate but instead are loosely piled up in the well bottom resulting in 1) an increased projected area and 2) an increase in nuclear count in the projection images.
Simple nuclei count analysis in projection images was used as a reliable surrogate marker for organoid integrity/dis-integration.

TU-BcX-4IC 2D culture [5] = assay: Imaging read-out, 2D culture; details: Homo sapiens, 120 h, read-out: EC50, Imaging 2D
Description: (§2) Cell metabolism may be measured by ATP level as another readout for effects of anti-cancer drugs that is related to cytotoxicity. In the present examples, a subset of 12 compounds were used for evaluation of compound effects, using the CellTiter-Glo 3D assay (Promega), which detects ATP levels. Compounds may be tested using 7 point 5× dilutions starting from 100 uM. In the present examples, compound effects on 2D culture and 3D cultures were compared, using imaging and CellTiter-Glo 3D methods. Cultures were set up in parallel, using same cell number (2000). Cultures were allowed to grow for 48 hours, then treated with compounds for 5 days.
(§3) Images were analyzed using MetaXpress Software (Molecular Devices). Count Nuclei or Cell Scoring application modules were used for nuclear count live/dead assessment, or evaluation of cell number positive for specific markers. Output measurements included spheroid width, spheroid area, average intensity for calcein AM or EthD-III, counts of all nuclei, and evaluation of average nuclear size and average intensities. In addition, calcein AM-positive cells were counted, and their area and intensity values were recorded. In addition to cell count, areas and intensities could be determined for live (EthD-III negative) and dead (EthD-III positive) cells.

TU-BcX-4IC 3D cultures [6] = assay: Imaging read-out, 3D culture; details: Homo sapiens, 120 h, read-out: EC50, Imaging 3D
Description: as §2, §3

TU-BcX-4IC tumoroids [7] = assay: Cell Painting assay adapted for 3D tumoroids, phenotypic distance score and cluster analysis; details: 10 μM, phenotypic distance relative to DMSO controls
Description: For phenotypic profiling, the tumoroids were treated with a single 10 μM concentration of compound, using the methods described above. Notable changes in the staining protocol included increased times for dye incubation, fixation, and permeabilization. […] Images were acquired with Z-stacks using 20× magnification, and the analysis was carried out on projection (maximum) images.
Unlike the previous analysis that included cell count or live-dead evaluation, multiple read-outs may be collected from the whole spheroid to form their phenotypic profile. […] Instead, the spheroid images may also acquired in transmitted light (bright field), and these images may be used to identify the spheroid structures using a deep learning-based image segmentation approach which may improve the analysis. Features extracted from each spheroid may include object morphologies, intensities, and texture measurements for, e.g., the six cell stains and bright field images.
To determine hits from the assay, a phenotypic distance score may be calculated based on the PCA (principal component analysis) components.
This score is a measure of the phenotypic effect of the compounds on the tumoroids relative to the controls. All hits may then be clustered based on their phenotypic profiles using the normalized principal component scores.
To image the organoids labeled with the cell painting dyes, the ImageXpress Confocal HT.ai system, equipped with a laser light source, was used for image acquisition. The confocal mode (pinhole size 60 μm) was used to image organoids with a 20× Plan Apo Lambda, NA 0.75 objective, with z-stacking enabled (5p m step size). The maximum projection image was selected in the acquisition setup.
Images were analyzed using MetaXpress Software (Molecular Devices). […] For the Cell Painting analysis, image analysis was done in the IN Carta image analysis software. To segment the organoids, a deep learning-based model was created based on the TL channel to segment individual organoids. Following segmentation, measurements that include intensity, shape, area, and texture were extracted from all 6 fluorescent channels. In total, 210 analytical features were obtained from each organoid.
The plate was first incubated with MitoTracker DeepRed (500 nM) for 2 hours. The samples were fixed with 4% paraformaldehyde (PFA) in HBSS for 60 minutes. All wash steps were carried out by exchanging half the volume in each well with HBSS to minimize displacement of the organoids from the center of the well.
Measurements from IN Carta were exported as a CSV file and uploaded into StratoMineR (Core Life Analytica), a web-based data analytics platform for hit picking and phenotypic clustering.

TU-BcX-4IC tumoroids [8] = assay: Label-free transmitted light imaging of tumoroids, deep learning segmentation (IN Carta); type: cell-based, human; details: 10 uM, 5 days, no staining, 10× objective
Description: Images were analyzed using SYNAP module of InCartasoftware (Molecular Devices). Analysis mask shown in yellow.
A deep learning-based segmentation (IN Carta Image Analysis Software) approach was used to find all tumoroid objects in transmitted light, either intact or affected. Following segmentation and data extraction, a machine learning tool was utilized to classify all tumoroids into intact, intermediate or severely affected categories. Affected tumoroids were flagged by increase in the object areas (criteria were set as AVERAGE 2*STDEV from the DMSO-treated), allowing detection of effective compounds (FIG. 7, Table 6). An advantage of this method is that compound effects could be interrogated in a label-free manner during multiple time points. However, the analysis allowed some ambiguity in determining accurate areas of the objects, especially when the phenotypic changes were weak or moderate (FIG. 7). The endpoint fluorescent imaging and analysis enabled more robust measurements and compound selection (Tables 5 and 6).
Transmitted light (TL) and fluorescent (FL) images were acquired on the ImageXpress Confocal HT.ai High-Content Imaging System (Molecular Devices) and images analyzed using MetaXpress High-Content Image Analysis Software. Tumoroid images were acquired in TL with approximately 60 μm offset. Zstack images were acquired with the 10× objectives using confocal mode. Best focus projection images were used for TL analysis, and maximum projection images were used for FL analysis. MetaXpress Software or IN Carta Image Analysis Software was used for analysis.

[9] = 3D assay, 7-point concentration curves, 5 days, nuclear count in projection images, read-out: EC50

EC50 (TU-BcX-4IC tumoroids [1]; [9]) | EC50 (TU-BcX-4IC 2D culture [5]) | EC50 (TU-BcX-4IC 3D cultures [6]) | SMILES | EC50 (TU-BcX-4IC 3D cultures [2]) | EC50 (TU-BcX-4IC 2D culture [3]) | Tumoroids effected by compound in transmitted light images (TU-BcX-4IC tumoroids [8]) | other results
17 nM | 10 nM | 70 nM | CC(C)C[C@H](NC(=O)[C@H](Cc1ccccc1)NC(=O)c1cnccn1)B(O)O [Bortezomib] | 15 nM | 10 nM | – | minimal effective concentration (TU-BcX-4IC tumoroids [4]): 0.01 µM; Efficacy at low concentrations (TU-BcX-4IC tumoroids [4]; library screen, tumoroid integrity by nuclear count): efficacy at low concentrations
28 nM | – | – | COc1c(OCCCN2CCOCC2)ccc2c1N=C(NC(=O)c1cnc(N)nc1)N1CCN=C21 [Copanlisib tris-HCl] | – | – | effected by compounds | Distance Score (TU-BcX-4IC tumoroids [7]): 5.147; minimal effective concentration (TU-BcX-4IC tumoroids [4]): 0.1 µM; Viability HIT? (TU-BcX-4IC tumoroids [4]): yes
54 nM | 6 nM | 141 nM | Cc1[nH]c2ccccc2c1CCNCc1ccc(/C=C/C(=O)NO)cc1 [Panobinostat] | 84 nM | 46 nM | – | –

Continued, compound first:

SMILES | EC50 (TU-BcX-4IC tumoroids [1]; [9]) | EC50 (TU-BcX-4IC 2D culture [5]) | EC50 (TU-BcX-4IC 3D cultures [6]) | EC50 (TU-BcX-4IC 3D cultures [2]) | EC50 (TU-BcX-4IC 2D culture [3]) | Tumoroids effected by compound in transmitted light images (TU-BcX-4IC tumoroids [8]) | other results
O=C1c2c(O)ccc(O)c2C(=O)c2c(NCCNCCO)ccc(NCCNCCO)c21 [Mitoxantrone] | – | – | – | – | – | effected by compounds | Distance Score (TU-BcX-4IC tumoroids [7]): 6.688; Viability HIT? (TU-BcX-4IC tumoroids [4]): yes
C/C=C1\NC(=O)[C@H]2CSSCC/C=C/[C@H](CC(=O)N[C@H](C(C)C)C(=O)N2)OC(=O)[C@H](C(C)C)NC1=O [Romidepsin] | – | ~10 nM | < 10 nM | ~10 nM | ~10 nM | – | EC50 (TU-BcX-4IC tumoroids [1]): 36 nM
CC(=O)Nc1cccc(-n2c(=O)n(C3CC3)c(=O)c3c(Nc4ccc(I)cc4F)n(C)c(=O)c(C)c32)c1 [Trametinib] | 70 nM | 6270 nM | 8820 nM | 2620 nM | 7330 nM | – | –
COc1cccc2c1C(=O)c1c(O)c3c(c(O)c1C2=O)C[C@@](O)(C(=O)CO)C[C@@H]3O[C@H]1C[C@H](N)[C@H](O)[C@H](C)O1 [doxorubicin] | – | – | – | – | – | effected by compounds | Nuclear count in projection images (qualitative) (TU-BcX-4IC tumoroids [4]; 3D tumoroids, 5 days): decrease in counted nuclei
COc1cc(OC)cc(N(CCNC(C)C)c2ccc3ncc(-c4cnn(C)c4)nc3c2)c1 [erdafitinib] | – | – | – | – | – | effected by compounds | –
